Laboratory results published in ChEMBL document CHEMBL3872216, “Modulatory effects of silibinin in various cell signaling pathways against liver disorders and cancer - A comprehensive review” (Eur J Med Chem, 2016).

Key:
[1] = Cytotoxicity against human T47D cells assessed as reduction in cell viability after 24 hrs by MTT assay; assay type: functional, cell-based
Cytochrome P450 2C9 = Cytochrome P450 2C9 (Homo sapiens, UniProt P11712); experiment: Inhibition of CYP2C9 in human liver microsomes using (S)-warfarin as substrate at after 30 mins by LC-MS/MS analysis; assay type: ADME
[2] = Cytotoxicity against human LoVo cells assessed as reduction in cell growth after 24 hrs by trypan blue exclusion assay; assay type: functional, cell-based
[3] = Downregulation of telomerase expression in human T47D cells after 72 hrs in presence of curcumin by SYBR green-dye based RT-PCR analysis; assay type: functional, cell-based
[4] = Cytotoxicity against human ARCaPM cells assessed as cell growth inhibition at 200 uM after 48 hrs by MTT assay relative to control; assay type: functional; conditions: read-out: GI
Hepatitis C virus = experiment: Antiviral activity against Hepatitis C virus in liver transplanted patient with established HCV recurrence assessed as reduction in viral load at 20 mg/kg, iv administered for 14 days; assay type: functional, Hepacivirus hominis
[5] = Antitumor activity against human HT-29 cells xenografted in nude mouse assessed as tumor growth inhibition at 200 mg/kg, po administered 5 days per week for 32 days; assay type: functional; conditions: HT-29, po, read-out: TGI
[6] = Cytotoxicity against human DU145 cells assessed as cell growth inhibition at 200 uM after 48 hrs by MTT assay relative to control; assay type: functional; conditions: DU-145, 48 h, read-out: GI
[7] = Cytotoxicity against human PC3 cells assessed as cell growth inhibition at 200 uM after 48 hrs by MTT assay relative to control; assay type: functional; conditions: PC-3, 48 h, read-out: GI
[8] = Antitumor activity against humanPC3 cells xenografted in nude mouse assessed as tumor growth inhibition at 100 mg/kg, po administered via gavage for 5 days per week for 7 weeks relative to control; assay type: functional; conditions: Homo sapiens, PC-3, po; read-out: TGI
[9] = Cytotoxicity against human LNCAP cells assessed as cell growth inhibition at 25 uM after 48 hrs in presence of 15 nM doxorubicin by manual cell counting; assay type: functional
[10] = Cytotoxicity against human T47D cells assessed as reduction in cell viability after 24 hrs in presence of curcumin by MTT assay; assay type: functional, cell-based
[11] = Cytotoxicity against human LNCAP cells assessed as cell growth inhibition at 200 uM after 48 hrs by MTT assay relative to control; assay type: functional; conditions: read-out: GI
[12] = Cytotoxicity against human LoVo cells assessed as reduction in cell growth at 50 to 200 uM after 24 hrs by trypan blue exclusion assay; assay type: functional
[13] = Cytotoxicity against human DU145 cells assessed as cell growth inhibition at 100 uM after 48 hrs in presence of 25 nM doxorubicin by manual cell counting; assay type: functional, DU-145
[14] = Antitumor activity against wild type B6/129PF2 mouse lung tumor assessed reduction in urethane-induced tumor growth at 742 mg/kg, po administered via gavage for 5 days per week for 18 weeks starting from 8 weeks after urethane injection measured 25 weeks after first urethane injection; assay type: functional; conditions: B6/129PF2, po, read-out: TGI

Sequence of Cytochrome P450 2C9 (P11712 whole entry): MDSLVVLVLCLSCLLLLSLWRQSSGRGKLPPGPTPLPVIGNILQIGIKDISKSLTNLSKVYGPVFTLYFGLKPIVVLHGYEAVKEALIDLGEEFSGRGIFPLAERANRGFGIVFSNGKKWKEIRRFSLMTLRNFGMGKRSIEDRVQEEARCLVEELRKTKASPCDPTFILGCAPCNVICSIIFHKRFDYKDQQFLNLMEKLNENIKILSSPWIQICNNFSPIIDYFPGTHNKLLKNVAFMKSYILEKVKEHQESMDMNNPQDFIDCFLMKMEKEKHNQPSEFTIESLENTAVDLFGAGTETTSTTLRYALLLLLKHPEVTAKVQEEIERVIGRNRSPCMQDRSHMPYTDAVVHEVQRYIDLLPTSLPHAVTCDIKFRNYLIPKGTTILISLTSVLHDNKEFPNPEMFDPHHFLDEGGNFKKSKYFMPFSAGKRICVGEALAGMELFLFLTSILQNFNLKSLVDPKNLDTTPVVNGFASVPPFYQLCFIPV

Work on `COc1cc(/C=C/C(=O)CC(=O)/C=C/c2ccc(O)c(OC)c2)ccc1O` [CURCUMIN] yielded an IC50 [1] of 30 µM.

For `COc1cc([C@H]2Oc3cc([C@H]4Oc5cc(O)cc(O)c5C(=O)[C@@H]4O)ccc3O[C@@H]2CO)ccc1O` [SILYBIN A], the IC50 (Cytochrome P450 2C9) was 18 µM, the IC50 [2] was 50 to 200 µM and the IC50 [3] was 12 µM. It also gave an inhibition of growth at 200 µM [4] of 18.5%, an Activity (Hepatitis C virus) of 2.3 and an inhibition in vivo at 200 mg/kg [5] of no more than 48%. It also gave an inhibition of growth at 200 µM [6] of 73.8%, an inhibition of growth at 200 µM [7] of 60% and an inhibition in vivo at 100 mg/kg [8] of 40%. The “growth inhibition (GI)” value [9] was 62 - 69%, the IC50 [10] was 20 µM and the inhibition of growth at 200 µM [11] was 48.7%. For the same compound, the IC50 [1] was 110 µM, the “growth inhibition (GI)” value [12] was 30 - 49% and the “growth inhibition (GI)” value [13] was 74 - 87%. For the same compound, the inhibition in vivo at 742 mg/kg [14] was 71%.
